Data reported in patent US12343326B2, “Psychoactive medicines and their use for treating psychiatric and neurological conditions and disorders” (Transcend Therapeutics, Inc., priority 2021, dated 2025).

How the values were obtained:
[1] = test system: mice; assay: Mouse fear extinction paradigm (PTSD model); type: in vivo; conditions: methylone 30 mg/kg IP; day 3
Excerpt: Effective PTSD treatments facilitate the disassociation between a traumatic memory and the patient's fear response, making cues for the traumatic memory evoke less of a fear response. This is modeled in the mouse fear extinction paradigm (see FIG. 9A) which takes place over 3 days. On day 1 (fear conditioning), mice are trained to acquire a “traumatic memory,” namely associating the conditioned stimulus (CS, tone) to the unconditioned stimulus (US, foot shock). On day 2 (extinction training), they are trained to forget the traumatic memory association by presenting the CS 6 times (with no US) in a novel environment. On day 3 (extinction recall), the mice are “asked” if that tone (CS) still elicits a fearful response, as measured by the time spent freezing when the tone is presented. Less time freezing means better extinction recall. Drugs that improve extinction recall reduce freezing time on day 3, and, therefore, show potential as a PTSD treatment.

[2] = biological target: 168 GPCRs (Homo sapiens, UniProt P08172); assay: β-arrestin based GPCR screen (PathHunter / GPCRmax), antagonist mode; conditions: CHRM2, Antagonist
[3] = biological target: 168 GPCRs (Homo sapiens, UniProt P08588); assay: as above; conditions: ADRB1, Antagonist
Sequence of 168 GPCRs (Homo sapiens, UniProt P08588) (P08588 whole entry): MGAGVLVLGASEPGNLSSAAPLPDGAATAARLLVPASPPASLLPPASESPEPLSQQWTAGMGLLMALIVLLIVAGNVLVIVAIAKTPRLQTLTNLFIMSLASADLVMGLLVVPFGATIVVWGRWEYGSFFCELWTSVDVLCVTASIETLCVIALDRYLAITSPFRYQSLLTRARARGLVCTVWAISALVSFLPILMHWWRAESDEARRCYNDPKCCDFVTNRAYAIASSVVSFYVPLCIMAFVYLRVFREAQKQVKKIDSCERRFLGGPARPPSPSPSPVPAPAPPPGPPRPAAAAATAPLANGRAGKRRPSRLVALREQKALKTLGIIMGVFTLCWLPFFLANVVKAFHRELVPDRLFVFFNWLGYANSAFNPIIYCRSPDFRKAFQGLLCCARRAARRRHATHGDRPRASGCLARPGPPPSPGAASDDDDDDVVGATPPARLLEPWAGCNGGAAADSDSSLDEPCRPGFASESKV

[4] = biological target: 168 GPCRs (Homo sapiens, UniProt P22888); assay: as above; conditions: LHCGR
Sequence of 168 GPCRs (Homo sapiens, UniProt P22888) (P22888 27-699): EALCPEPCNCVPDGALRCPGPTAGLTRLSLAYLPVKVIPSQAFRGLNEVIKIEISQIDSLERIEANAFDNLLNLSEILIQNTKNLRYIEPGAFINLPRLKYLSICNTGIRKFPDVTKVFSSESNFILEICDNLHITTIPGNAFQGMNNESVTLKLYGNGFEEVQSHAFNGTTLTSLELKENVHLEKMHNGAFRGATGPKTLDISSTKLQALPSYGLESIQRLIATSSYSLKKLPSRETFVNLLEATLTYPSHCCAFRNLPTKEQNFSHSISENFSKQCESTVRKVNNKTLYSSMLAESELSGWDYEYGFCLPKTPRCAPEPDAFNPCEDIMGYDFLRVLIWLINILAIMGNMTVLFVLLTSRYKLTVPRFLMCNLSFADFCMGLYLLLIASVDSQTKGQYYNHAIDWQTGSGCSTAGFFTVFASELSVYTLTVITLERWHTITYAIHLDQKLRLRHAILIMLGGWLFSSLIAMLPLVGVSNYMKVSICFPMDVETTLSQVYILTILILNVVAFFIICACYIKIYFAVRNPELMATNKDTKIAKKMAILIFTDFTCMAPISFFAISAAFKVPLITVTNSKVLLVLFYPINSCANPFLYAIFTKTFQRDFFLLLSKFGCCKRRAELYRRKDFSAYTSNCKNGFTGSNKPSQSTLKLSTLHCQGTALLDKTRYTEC

[5] = biological target: 168 GPCRs (Homo sapiens, UniProt P23945); assay: as above; conditions: FSHR
Sequence of 168 GPCRs (Homo sapiens, UniProt P23945) (P23945 18-695): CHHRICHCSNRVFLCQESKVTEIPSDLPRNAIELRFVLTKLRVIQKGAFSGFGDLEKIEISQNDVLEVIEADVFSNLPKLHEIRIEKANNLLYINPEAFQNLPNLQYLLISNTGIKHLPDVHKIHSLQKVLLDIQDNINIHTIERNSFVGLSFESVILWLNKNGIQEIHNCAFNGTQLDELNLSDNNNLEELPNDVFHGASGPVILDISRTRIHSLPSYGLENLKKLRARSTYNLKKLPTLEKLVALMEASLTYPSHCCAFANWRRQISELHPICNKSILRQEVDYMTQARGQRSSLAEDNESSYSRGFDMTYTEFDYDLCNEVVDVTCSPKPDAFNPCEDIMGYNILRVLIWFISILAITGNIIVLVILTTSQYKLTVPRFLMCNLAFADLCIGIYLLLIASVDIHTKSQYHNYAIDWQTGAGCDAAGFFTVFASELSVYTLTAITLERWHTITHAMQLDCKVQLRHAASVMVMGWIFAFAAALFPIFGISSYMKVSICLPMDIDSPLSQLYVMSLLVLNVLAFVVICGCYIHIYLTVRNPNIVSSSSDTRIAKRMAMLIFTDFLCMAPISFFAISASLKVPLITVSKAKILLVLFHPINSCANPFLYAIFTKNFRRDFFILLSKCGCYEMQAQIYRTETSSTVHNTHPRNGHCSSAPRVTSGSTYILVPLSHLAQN

[6] = biological target: 168 GPCRs (Homo sapiens, UniProt P28222); assay: as above; conditions: HTR1B
Sequence of 168 GPCRs (Homo sapiens, UniProt P28222) (P28222 whole entry): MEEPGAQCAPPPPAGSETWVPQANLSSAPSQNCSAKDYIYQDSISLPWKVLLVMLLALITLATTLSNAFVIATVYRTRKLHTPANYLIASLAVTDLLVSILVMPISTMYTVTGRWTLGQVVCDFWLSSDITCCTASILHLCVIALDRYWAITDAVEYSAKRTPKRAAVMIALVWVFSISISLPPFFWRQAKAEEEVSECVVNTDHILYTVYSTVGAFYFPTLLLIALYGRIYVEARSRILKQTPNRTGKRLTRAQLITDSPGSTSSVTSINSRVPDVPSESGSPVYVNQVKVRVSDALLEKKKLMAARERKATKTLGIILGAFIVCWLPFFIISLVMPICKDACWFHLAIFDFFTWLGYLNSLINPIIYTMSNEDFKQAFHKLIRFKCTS

[7] = biological target: 168 GPCRs (Homo sapiens, UniProt P30550); assay: as above; conditions: GRPR
[8] = biological target: 168 GPCRs (Homo sapiens, UniProt P32245); assay: as above; conditions: MC4R
Sequence of 168 GPCRs (Homo sapiens, UniProt P32245) (P32245 whole entry): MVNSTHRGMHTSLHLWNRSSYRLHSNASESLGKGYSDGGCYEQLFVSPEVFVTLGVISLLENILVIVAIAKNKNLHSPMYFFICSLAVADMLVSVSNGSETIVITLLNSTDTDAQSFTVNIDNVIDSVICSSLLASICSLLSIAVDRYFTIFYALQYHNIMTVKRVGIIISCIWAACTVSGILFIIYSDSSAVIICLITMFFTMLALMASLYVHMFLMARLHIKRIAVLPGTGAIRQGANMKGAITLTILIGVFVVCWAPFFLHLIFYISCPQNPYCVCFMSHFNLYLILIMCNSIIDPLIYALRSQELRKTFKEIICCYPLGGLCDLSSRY

[9] = biological target: T1, 168 GPCRs (Homo sapiens, UniProt P32247); assay: as above; conditions: BRS3, Antagonist
T1 sequence (P32247 1-399): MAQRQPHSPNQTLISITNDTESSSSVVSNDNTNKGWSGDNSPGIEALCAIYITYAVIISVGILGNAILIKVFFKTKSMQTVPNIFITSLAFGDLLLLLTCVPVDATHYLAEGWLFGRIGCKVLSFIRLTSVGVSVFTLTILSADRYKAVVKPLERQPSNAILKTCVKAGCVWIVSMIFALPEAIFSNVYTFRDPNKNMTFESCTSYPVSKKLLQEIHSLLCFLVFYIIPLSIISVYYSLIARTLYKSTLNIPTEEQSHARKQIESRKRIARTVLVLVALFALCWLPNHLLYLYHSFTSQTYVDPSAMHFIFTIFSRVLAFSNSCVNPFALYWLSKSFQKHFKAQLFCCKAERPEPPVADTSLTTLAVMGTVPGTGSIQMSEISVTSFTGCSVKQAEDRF

[10] = biological target: 168 GPCRs (Homo sapiens, UniProt P35367); assay: as above
[11] = biological target: 168 GPCRs (Homo sapiens, UniProt P35368); assay: as above; conditions: ADRA1B, Antagonist
Sequence of 168 GPCRs (Homo sapiens, UniProt P35368) (P35368 whole entry): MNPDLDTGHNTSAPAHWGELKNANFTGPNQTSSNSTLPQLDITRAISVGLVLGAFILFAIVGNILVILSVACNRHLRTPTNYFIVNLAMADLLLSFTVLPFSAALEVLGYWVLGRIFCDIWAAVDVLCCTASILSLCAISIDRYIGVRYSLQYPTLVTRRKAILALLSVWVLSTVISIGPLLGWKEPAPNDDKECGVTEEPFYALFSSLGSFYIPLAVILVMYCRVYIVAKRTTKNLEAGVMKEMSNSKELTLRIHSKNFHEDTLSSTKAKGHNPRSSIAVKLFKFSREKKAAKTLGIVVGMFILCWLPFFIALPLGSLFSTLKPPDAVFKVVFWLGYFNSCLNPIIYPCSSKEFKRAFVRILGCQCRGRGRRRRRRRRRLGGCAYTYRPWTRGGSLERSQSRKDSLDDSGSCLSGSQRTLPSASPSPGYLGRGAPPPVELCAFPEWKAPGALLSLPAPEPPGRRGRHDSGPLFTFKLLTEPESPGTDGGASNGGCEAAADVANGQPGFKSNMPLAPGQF

[12] = biological target: 168 GPCRs (Homo sapiens, UniProt P41231); assay: as above
Sequence of 168 GPCRs (Homo sapiens, UniProt P41231) (P41231 whole entry): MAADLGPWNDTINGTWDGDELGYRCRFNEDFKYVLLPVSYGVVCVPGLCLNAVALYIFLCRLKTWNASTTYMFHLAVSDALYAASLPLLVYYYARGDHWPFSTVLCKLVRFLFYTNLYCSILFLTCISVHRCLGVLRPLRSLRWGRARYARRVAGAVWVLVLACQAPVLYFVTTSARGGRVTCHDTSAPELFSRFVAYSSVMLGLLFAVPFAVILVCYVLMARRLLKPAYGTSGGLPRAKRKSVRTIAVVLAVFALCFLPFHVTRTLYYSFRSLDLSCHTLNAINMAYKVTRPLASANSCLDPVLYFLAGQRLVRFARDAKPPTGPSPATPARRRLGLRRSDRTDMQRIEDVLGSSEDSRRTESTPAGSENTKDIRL

[13] = biological target: 168 GPCRs (Homo sapiens, UniProt P41597); assay: as above; conditions: CCR2, Antagonist
[14] = biological target: 168 GPCRs (Homo sapiens, UniProt P49019); assay: as above; conditions: GPR109B
Sequence of 168 GPCRs (Homo sapiens, UniProt P49019) (P49019 whole entry): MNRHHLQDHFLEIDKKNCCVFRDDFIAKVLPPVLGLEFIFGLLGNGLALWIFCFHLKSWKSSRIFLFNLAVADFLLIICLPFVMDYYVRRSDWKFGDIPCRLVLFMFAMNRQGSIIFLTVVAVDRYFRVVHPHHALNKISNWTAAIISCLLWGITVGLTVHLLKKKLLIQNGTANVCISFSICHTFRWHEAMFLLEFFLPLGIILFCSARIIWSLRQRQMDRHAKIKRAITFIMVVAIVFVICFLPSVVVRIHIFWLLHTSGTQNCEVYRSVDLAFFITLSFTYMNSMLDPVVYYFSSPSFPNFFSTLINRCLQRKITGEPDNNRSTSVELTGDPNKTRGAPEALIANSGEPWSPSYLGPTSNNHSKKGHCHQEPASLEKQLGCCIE

[15] = biological target: 168 GPCRs (Homo sapiens, UniProt P50391); assay: as above
Sequence of 168 GPCRs (Homo sapiens, UniProt P50391) (P50391 whole entry): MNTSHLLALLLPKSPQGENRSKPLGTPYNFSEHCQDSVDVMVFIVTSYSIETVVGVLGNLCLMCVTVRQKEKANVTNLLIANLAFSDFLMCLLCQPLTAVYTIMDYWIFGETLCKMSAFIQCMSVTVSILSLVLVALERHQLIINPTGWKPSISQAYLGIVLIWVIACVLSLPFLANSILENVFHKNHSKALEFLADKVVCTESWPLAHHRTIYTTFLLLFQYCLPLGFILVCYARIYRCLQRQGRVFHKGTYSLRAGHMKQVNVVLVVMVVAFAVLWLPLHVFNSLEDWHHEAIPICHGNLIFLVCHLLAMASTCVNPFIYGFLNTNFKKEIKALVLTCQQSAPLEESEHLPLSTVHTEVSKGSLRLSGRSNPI

[16] = biological target: 168 GPCRs (Homo sapiens, UniProt P51582); assay: as above
Sequence of 168 GPCRs (Homo sapiens, UniProt P51582) (P51582 whole entry): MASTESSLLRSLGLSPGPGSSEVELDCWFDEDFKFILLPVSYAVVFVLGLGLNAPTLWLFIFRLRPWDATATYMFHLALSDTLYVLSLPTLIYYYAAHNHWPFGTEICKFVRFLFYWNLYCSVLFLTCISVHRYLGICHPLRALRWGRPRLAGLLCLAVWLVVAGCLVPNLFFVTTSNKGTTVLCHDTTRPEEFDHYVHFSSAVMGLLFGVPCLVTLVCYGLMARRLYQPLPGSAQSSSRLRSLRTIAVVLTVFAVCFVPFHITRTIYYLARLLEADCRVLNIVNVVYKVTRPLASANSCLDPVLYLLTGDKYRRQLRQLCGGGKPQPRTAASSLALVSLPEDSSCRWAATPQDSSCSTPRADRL

[17] = biological target: 168 GPCRs (Homo sapiens, UniProt Q9HBW0); assay: as above
Sequence of 168 GPCRs (Homo sapiens, UniProt Q9HBW0) (Q9HBW0 whole entry): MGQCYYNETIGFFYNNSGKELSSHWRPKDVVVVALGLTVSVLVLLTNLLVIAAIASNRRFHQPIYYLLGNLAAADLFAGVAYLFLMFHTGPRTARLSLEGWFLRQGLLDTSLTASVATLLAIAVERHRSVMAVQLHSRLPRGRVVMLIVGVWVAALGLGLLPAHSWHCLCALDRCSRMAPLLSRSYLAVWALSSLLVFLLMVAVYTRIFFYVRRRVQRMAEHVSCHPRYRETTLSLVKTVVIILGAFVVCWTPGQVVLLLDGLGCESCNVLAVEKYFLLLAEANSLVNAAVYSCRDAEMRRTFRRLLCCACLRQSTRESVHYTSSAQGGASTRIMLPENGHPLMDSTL

With `CNC(C)C(=O)c1ccc2c(c1)OCO2` (stereo not drawn) [methylone, 3,4-methylenedioxy-N-methylcathinone] the “locomotion during testing session” value [1] was “no differences between groups in locomotion”, the activity at 1 µM ([2]; 1 uM) was -18.5% and the activity at 10 µM ([2]; 10 uM) was -7.4%. For the same molecule, the activity at 1 µM ([3]; 1 uM) was -0.8%, the activity at 10 µM ([3]; 10 uM) was -1.2% and the activity at 10 µM ([4]; Antagonist mode, 10 uM) was 11.2%. It also gave an activity at 1 µM ([4]; Antagonist, 1 uM) of 13.8%, an activity at 10 µM ([5]; Antagonist mode, 10 uM) of -8.4% and an activity at 1 µM ([5]; Antagonist, 1 uM) of -11.8%. The activity at 10 µM ([6]; Antagonist mode, 10 uM) was -6.2%, the activity at 1 µM ([6]; Antagonist, 1 uM) was -9.5% and the activity at 10 µM ([7]; Antagonist mode, 10 uM) was -1.4%. It also gave an activity at 1 µM ([7]; Antagonist, 1 uM) of 0.7%, an activity at 10 µM ([8]; Antagonist mode, 10 uM) of -14% and an activity at 1 µM ([8]; Antagonist, 1 uM) of -5.2%. The activity at 1 µM ([9]; 1 uM) was 18.3%, the activity at 10 µM ([9]; 10 uM) was 10.1% and the activity at 10 µM ([10]; HRH1, Antagonist mode, 10 uM) was 2.2%. It also gave an activity at 1 µM ([10]; HRH1, Antagonist, 1 uM) of -18%, an activity at 1 µM ([11]; 1 uM) of 17.9% and an activity at 10 µM ([11]; 10 uM) of 20.6%. It also gave an activity at 10 µM ([12]; P2RY2, Antagonist mode, 10 uM) of 1.8%, an activity at 1 µM ([12]; P2RY2, Antagonist, 1 uM) of 5.4% and an activity at 1 µM ([13]; 1 uM) of 2%. It also gave an activity at 10 µM ([13]; 10 uM) of 4.9%, an activity at 10 µM ([14]; Antagonist mode, 10 uM) of -20.2% and an activity at 1 µM ([14]; Antagonist, 1 uM) of -16.5%. The activity at 10 µM ([15]; PPYR1, Antagonist mode, 10 uM) was 6.5%, the activity at 1 µM ([15]; PPYR1, Antagonist, 1 uM) was 9.5% and the activity at 10 µM ([16]; P2RY4, Antagonist mode, 10 uM) was 17.5%. For the same molecule, the activity at 1 µM ([16]; P2RY4, Antagonist, 1 uM) was 15.1%, the activity at 10 µM ([17]; EDG4, Antagonist mode, 10 uM) was -21% and the activity at 1 µM ([17]; EDG4, Antagonist, 1 uM) was -10.2%.
